From article PMC5536191 (ACS chemical biology, 2017)
“Also recorded” adds a separate entry of the source.

Experiments:
[1] = system: Will-2 cells; assay: H3K27Me3 levels in DLBCL cells; assay type: cell-based
[2] = system: MCF7 cells; assay: H3Cit26 and H3K27Me3 levels after estradiol stimulation; assay type: cell-based
[3] = system: T47D cells; assay: as above; assay type: cell-based
[4] = system: T47D cells; assay type: cell-based
[5] = system: PAD; assay: PAD inhibition by F-Amidine; assay type: biochemical; conditions: F-Amidine 1 mM, 15 min
[6] = system: PRC2; conditions: F-Amidine 1 mM
[7] = system: PAD; conditions: ref [46]; cited from earlier work
[8] = system: PRC2 complex; assay: PRC2 methyltransferase activity on histone H3 after PAD preincubation; assay type: biochemical, human; conditions: PAD preincubation with H3; Figure S1A and B
[9] = system: UTX and JMJD3; assay: Co-immunoprecipitation with PAD2 in MCF7 nuclear extracts; assay type: binding; conditions: MCF7 nuclear extracts post E2 stimulation
[10] = system: ERα; assay: Co-immunoprecipitation of PAD2 and ERα in MCF7 nuclear extracts; assay type: binding; conditions: MCF7 nuclear extracts post E2 stimulation

Compound: N=C(CF)NCCC[C@H](NC(=O)c1ccc(-c2ccccc2)cc1)c1nc2ccccc2[nH]1 [BB-F-Amidine, N1-[1,4′-Phenyl]benzoyl-N5-(2-fluoro-1-inimoethyl)-1-(1H-benzo[d]imidazole-2-yl)-L-ornithine amide]
- H3K27Me3 increase by PAD inhibitor in EZH2 knockdown cells ([1]; EZH2 knockdown cells treated with PAD inhibitor): attenuated
- increase in H3K27Me3 levels ([1]; PAD inhibitor treatment, DLBCL line (Will-2)): 4 fold

Compound: C[C@]12CC[C@@H]3c4ccc(O)cc4CC[C@H]3[C@@H]1CC[C@@H]2O [E2, 17-β-estradiol]
- H3K27Me3 level ([2]; 100 nM, 4 h): modest reduction in H3K27Me3 levels
- H3Cit26 signal ([2]; E2 stimulation, after 2 h): lost
- H3K27Me3 level ([3]; 100 nM, 1 h): modest reduction in H3K27Me3 levels
- H3Cit26 signal ([3]; E2 stimulation, after 2 h): greatly reduced

Compound: CCN(c1cc(-c2ccc(CN3CCOCC3)cc2)cc(C(=O)NCc2c(C)cc(C)[nH]c2=O)c1C)C1CCOCC1 [EPZ-6438]
- effect on H3K27Me3 increase of PAD2 knockdown cells ([1]; PAD2 knockdown cells treated with EZH2 inhibitor): attenuated
- effect on baseline transcription before estradiol stimulation ([4]; 5 μM EPZ-6438, 5 days, absence of estradiol): basal transcriptional level is increased relative to control cells; also recorded: increased baseline transcription prior to E2 stimulation

Compound: N=C(CF)NCCC[C@H](NC(=O)c1ccccc1)C(N)=O [F-Amidine, N-α-benzoyl-N5-(2-fluoro-1-iminoethyl)-L-ornithine amide]
- inhibition of PAD reaction [5]: completely inhibits the PAD reaction
- effect on methyltransferase activity of PRC2 [6]: no effect on the methyltransferase activity of PRC2
- PAD inhibition character [7]: highly selective, irreversible pan-PAD inhibitor

Compound: CCOC(=O)CCNc1cc(N2CCc3ccccc3CC2)nc(-c2ccccn2)n1 [GSK-J4]
- effect on E2-stimulated transcription of ERα-target genes (e.g. GDNF and KRT13) ([4]; 400 nM GSK-J4, 5 days, baseline vs 60 min E2): downregulated

Compound: PAD2: Protein Arginine Deiminase type-2
- effect on PRC2 catalyzed methylation, time and dose dependence [8]: decrease PRC2 catalyzed methylation in a time- and dose-dependent manner
- co-immunoprecipitation with UTX and JMJD3 [9]: co-immunoprecipitates UTX and JMJD3
- co-immunoprecipitation of PAD2 and ERα [10]: PAD2 and ERα co-immunoprecipitate

Compound: PAD4: Protein Arginine Deiminase type-4
- effect on PRC2 catalyzed methylation, time and dose dependence [8]: decrease PRC2 catalyzed methylation in a time- and dose-dependent manner
